In patent publication US20250281629A1, “COMPOSITIONS AND METHODS FOR ANTI-PHOSPHOCHOLINE ACTIVE IMMUNOTHERAPY” (Duke University, priority 2022, published 2025):
Where no end group is shown, it is not given here.

Legend:
C57BL/6 mice = assay: Serum anti-PC antibody responses of immunized mice via ELISA (PC-BSA coated); type: in vivo, mouse; conditions: 10% Cys4-Q11 added to PC-Q11 or PCM-Q11 nanofibers; i.p.
Experimental: Mice and Immunizations. Female C57BL/6 mice (Envigo) age 6-10 weeks were used to initiate experiments except for the Il10^−/− colitis study where female B6.129P2-Il10^tm1Cgn/J (The Jackson Laboratory) mice age 5-7 weeks were used. While female mice were used for most experiments, age-matched male C57BL/6 mice (Envigo) were used in a one cycle acute DSS colitis model to confirm efficacy across sexes. Mice were housed at Duke University. All experimental procedures were performed on protocols (A264-18-11 and A199-21-09) approved by the Duke University Institutional Animal Care and Use Committee (IACUC). For subcutaneous immunizations, anesthetized mice were injected once behind each shoulder with 50 μL of 2 mM peptide nanofiber solution or 1×PBS. For intraperitoneal immunizations, mice were injected with 100 μL of 2 mM peptide nanofiber solution or 1×PBS. Nanofiber immunizations with adjuvant contained 10 μg CpG (ODN 1826, IAX-200-002-3001, Innaxon). For injections of only CpG, 10 μg of CpG in 100 μL 1×PBS was used. Mice were typically given three immunizations, with the specific boosting schedules stated in each figure caption, usually at weeks 0, 2, and 4, as this was determined to produce robust antibody responses in a short time frame.
Detection of Anti-PC Antibody Responses via ELISA. Anti-PC antibody responses in serum collected from the submandibular vein in mice were measured using ELISA. Briefly, plates were coated with 20 μg/mL PC-BSA (Biosearch Technologies, PC-1011-10) in 1×PBS or just 1×PBS at 4° C. overnight. The next day, the plates were washed using 1×PBST (1×PBS with 0.05% Tween 20) and then blocked three times with Superblock blocking buffer solution (Thermo Fisher, 37515). Serum diluted from 1:10^2 to 1:10^5 in 1% BSA in 1×PBST was the added to the plate and allowed to incubate for 2 h at room temperature. Anti-PC IgG was detected using HRP-conjugated Fcγ fragment-specific goat anti-mouse IgG (Jackson Immuno Research, 15-035-071). IgG subclasses and IgM anti-PC antibodies were detected using Southern Biotech HRP-conjugated goat anti-mouse antibodies (IgG1, IgG2b, IgG2c, IgG3, & IgM: 5300-05B). Area under the curve (AUC) measurements were calculated using background-subtracted absorbance values at dilutions from 1:10^2 to 1:10^5. Antibody titers were defined using an absorbance cutoff above background of 0.2 OD, where titer 2 represents an OD value greater than 0.2 at 1:10^2 dilution and so on up to titer 5 at 1:10^5 dilution.

[1] = test system: mouse anti-PC IgM monoclonal antibody (Clone: BH8); assay: ELISA for measuring nanofiber epitope reactivity; type: binding; conditions: nanofibers coated at 0.2 mM; PC-BSA positive control
Experimental: ELISA for Measuring Nanofiber Epitope Reactivity. The reactivity of PC conjugation methods was determined via binding of a mouse anti-PC IgM monoclonal antibody (Clone: BH8) (Sigma, MABF2084) to nanofibers. Nanofibers were diluted to 0.2 mM and coated onto 96-well plates at 4° C. overnight. PC-BSA (Biosearch Technologies, PC-1011-10) was coated at 20 μg/mL in 1×PBS overnight as a positive control, and PBS was used as a negative control. The next day, the plates were washed using 1×PBS with 0.05% Tween 20 (1×PBST) and then blocked with Superblock blocking buffer solution (Thermo Fisher, 37515) three times. This was followed by the addition anti-PC IgM which was serially diluted in 1% BSA in 1×PBST by 5-fold steps beginning from 1:100 (5 μg/mL) and allowed to incubate for 2 h at room temperature. Anti-PC IgM bound to nanofibers was then detected with HRP-conjugated goat anti-mouse IgM (Southern Biotech, 1021-05) and the absorbance values at 450 nm were measured.

B1a cells (CD19+CD5+) = assay: Nanofiber uptake in i.p. lavage cells, flow cytometry: B1a cells; type: in vivo, mouse; conditions: 4 hours after i.p. injection
Experimental: (§1) Nanofiber Uptake and Evaluation. The cell types present and their propensity to uptake nanofibers in the i.p. space was tested by injecting mice i.p. with 100 μL of 2 mM TAMRA-labeled fluorescent nanofibers. 4 hours later, mice were euthanized and i.p. lavage was conducted via the injection of 2 mL of cold 1×PBS into the peritoneal cavity and massaging the abdomen for 30 seconds. The solution was then carefully extracted from the i.p. space and the cells were isolated followed by rinsing with ice cold flow buffer (2% heat-inactivated FBS in 1×PBS). The cells present were treated with mouse BD Fc Block (Clone: 2.4G2) (BD Biosciences, 553142) in flow buffer on ice for 30 min and then washed and stained with antibodies against the following markers: CD5-APC (Clone: 53-7.3) (BioLegend, 100626), F4/80-PerCP/Cy5.5 (Clone: BM8) (BioLegend, 123128), CD19-APC/Cy7 (Clone: 6D5) (BioLegend, 115530), CD11c-PE/Cy7 (Clone: N418) (BioLegend, 117318), and CD86-BV605 (Clone: GL1) (BD Biosciences, 2272591) in flow buffer for 30 min on ice. TAMRA-fluorescence as an indication of nanofiber uptake was measured on the PE channel. Cells were then washed in flow buffer and stained with DAPI. Flow cytometry was conducted on a BD FACSCanto II cytometer and the results were analyzed using FlowJo software.

macrophages (F4/80+) = assay: Nanofiber uptake in i.p. lavage cells, flow cytometry: macrophages; type: in vivo, mouse; conditions: 4 hours after i.p. injection of TAMRA-labeled nanofibers
Experimental: as §1

[2] = Zeta potential of nanofibers; type: physicochemical; conditions: 1 mM conjugate coassembled with 1 mM Q11; 0.2 mM in 1×PBS, 25° C.
Experimental: Zeta Potential. Nanofibers were diluted to 0.2 mM in 1×PBS and zeta potential measurements were conducted at 25° C. using an Anton Paar Litesizer 500.

| Substance | effect of extra cysteines on anti-PC antibody responses (C57BL/6 mice) | binding of anti-PC mAb to nanofibers [1] | CD86 activation marker on TAMRA+ B1a cells vs non-B1a cells (B1a cells (CD19+CD5+)) | macrophages staining positively for nanofibers (macrophages (F4/80+)) | zeta potential (surface charge) of nanofibers [2] |
| --- | --- | --- | --- | --- | --- |
| CCCCSGSG-QQKFQFQFEQQ-NH2 (CCCCSGSGQQKFQFQFEQQ-NH2; cysteine pairing not given here) [Cys4-Q11] | did not significantly enhance or reduce the anti-PC antibody responses | – | – | – | – |
| AC-QQKFQFQFEQQ-NH2 (Ac-QQKFQFQFEQQ-NH2) [Q11] | – | not | not seen | almost all macrophages staining positively for nanofibers | – |
| C5H14NO4P-SGSG-QQKFQFQFEQQ-NH2 (C5H14NO4P-SGSGQQKFQFQFEQQ-NH2) [pa-PC-Q11, phosphoramidate-linked PC-Q11] | – | not | – | – | positively charged |
